In patent US5834257A, “α-agarase and production process of oligosaccharides and monosaccharides” (Japan Tobacco Inc., priority 1995, dated 1998) one finds Km and maximum velocity data, which are given here for one molecule.

The test system of the test is α-NAOS hydrolase (α-agarase) derived from Vibrio sp. JT0107-L4, N-terminal sequence SEQ ID NO:2. Briefly: Michaelis constant and maximum velocity by Lineweaver-Burk plot, neoagarobiose degradation measured by HPLC. Format: biochemical. The following applies: substrate neoagarobiose, 20 mM potassium phosphate buffer pH 7.8, 30° C. How it is done:
The activity determination of purified or partially purified products of this enzyme is conducted as follows. After an enzyme reaction with neoagarobiose as the substrate, the amount of degraded neoagarobiose is calculated from the amount of intact neoagarobiose which is determined by HPLC. Details are as follows. A 0.1% solution of neoagarobiose dissolved in 20 mM potassium phosphate buffer (pH 7.8) is prepared. This solution, as the substrate, in a volume of 90 μl was mixed with 10 μl of the enzyme solution. The mixed solution is incubated at 30° C. for 5 to 30 minutes, preferably for 10 minutes; the reaction is stopped by heating in boiling water for 1 minute. This reaction solution in a volume of 10 μl is applied to a column, Capcell pak C-18 (manufactured by Shiseido) which is of 4.5 mm in internal diameter and 250 mm in length, and eluted at a flow rate of 1 ml/min using water as the eluent; the amount of neoagarobiose not degraded by the enzyme reaction, which has a retention time of about 4.5 minutes, is quantified. The amount of degraded neoagarobiose is calculated inversely from the value in this measurement, assuming that the amount of enzyme degrading 1 μmol neoagarobiose per minute is 1 U. Neoagarobiose consisting of 3,6-anhydro-L-galactose and D-galactose through α-1,3 bond was used as the substrate. Various substrate solutions of different concentration were prepared. […]

Regarding `OC[C@H]1OC(O)[C@H](O)[C@@H](O[C@@H]2O[C@H]3CO[C@@H]([C@@H]2O)[C@@H]3O)[C@H]1O` (some centres unmarked) [Neoagarobiose], the Km was found to be 4.28 ± 5 mM. Where the note is “1 U = 1 μmol neoagarobiose degraded per minute”, this molecule had a maximum velocity of 87 U/mg-protein.
